Data from patent publication US12114657B1, “Compositions for use in animal housing” (priority 2017, dated 2024).

Conditions: in vivo

OO [hydrogen peroxide]
antibiotics use as fraction of the normal dose: ⅛
effect on mortality: reduced mortality
